Measurements reported in patent publication US8114909B2, “Treating or preventing restless legs syndrome using prodrugs of GABA analogs” (XenoPort, Inc., priority 2003, dated 2012).

Assay: drug release from the sustained release oral osmotic dosage form in artificial gastric fluid
Type: physicochemical
Conditions: release of prodrug from the osmotic sustained release dosage form of Example 1 (700 mg drug composition, one 10 mil passageway)
Method: The bilayered arrangements next are coated with a semipermeable wall. The wall-forming composition comprises 100% cellulose acetate having a ˜40% acetyl content. The polymer is dissolved in 100% acetone to make a 4% solid solution. The wall forming composition is sprayed at 26 grams/min onto and around the bilayer cores in a tablet coater until a dry weight of 90 mg/core is achieved. Next, one 10 mil (0.254 mm) exit passageway is mechanically drilled through the semipermeable wall to connect the drug layer with the exterior of the dosage system. The residual solvent is removed by first drying for 120 hours at 50° C. and 30% relative humidity, then the systems are dried for 2 hours at 50° C. to remove excess moisture. The drug dosage form produced by this process provides: ˜90 wt % 1-{[(α-isobutanoyloxyethoxy)carbonyl]aminomethyl}-1-cyclohexane acetic acid, 4 wt % hydroxypropylmethylcellulose of 11,200 molecular weight, 4 wt % polyethylene oxide of 5,000,000 molecular weight and 1 wt % magnesium stearate in the drug layer. The push composition comprises 63.7 wt % polyethylene oxide of 7,500,000 molecular weight, 30 wt % sodium chloride, 5 wt % hydroxypropylmethylcellulose of 11,200 molecular weight, 1 wt % red ferric oxide, 0.25 wt % magnesium stearate, and 0.075 wt % of butylated hydroxytoluene. The wall comprises 100 wt % cellulose acetate comprising a ˜40% acetyl content. […]

In the case of `CC(OC(=O)NCC1(CC(=O)O)CCCCC1)OC(=O)C(C)C` (stereo not drawn) [1-{[(α-isobutanoyloxyethoxy)carbonyl]aminomethyl}-1-cyclohexane acetic acid], the release rate is reported as greater than 20 mg/h.
